Values of other authors in patent US20200080027A1, “ADVANCED NOVEL ECO-FRIENDLY COMPOSITIONS” (priority 2015, published 2020).
Each block holds one compound with its values, some of them ahead of it.

Assays:
[1] = skin contact
human = human consumption
normal volunteers = conditions: 15 g/day for 10 days, 18 normal volunteers

Compound: [K+].[OH-] [Potassium hydroxide]
concentration of solution that is corrosive [1]: higher than 2%

Compound: C/C=C/C=C/C(=O)[O-].[K+] [Potassium sorbate]
maximum acceptable daily intake (human): 25 mg/kg
solubility in water (at 20° C.): 58.2%
carcinogenic effects (rats): not been found to have any carcinogenic effects
genotoxicity / mutagenicity in vitro (human blood cells): both genotoxic and mutagenic

Compound: O=C([O-])c1ccccc1.[Na+] [Sodium benzoate]
doses with no adverse effects in humans (humans): 647-825 mg/kg of body weight per day

water solubility: insoluble in water
Compound: Span 80

Compound: Xanthan gum
laxative effect (normal volunteers): highly efficient laxative
